The text below walks through data of US10195255B2, “GLP-1 derivatives and uses thereof” (Novo Nordisk A/S, priority 2013, dated 2019).

Structures are written as SMILES. Where a SMILES comes first, the peptide text is derived from it. [ ]: non-standard residue; d: D form. The star is where a group is joined. X3 = O=C(O)CCCCCCCCCCCCCCCCCCC(=O)NCC1CCC(C(=O)N[C@@H](CCC(=O)NCCOCCOCC(=O)NCCOCCOCC(=O)NCCCC[C@H](NC(=O)COCCOCCNC(=O)COCCOCCNC(=O)CC[C@H](NC(=O)C2CCC(CNC(=O)CCCCCCCCCCCCCCCCCCC(=O)O)CC2)C(=O)O)C(=O)*)C(=O)O)CC1; X2 = O=C(O)CCCCCCCCCCCCCCCCCCC(=O)N1CCC(C(=O)N[C@@H](CCC(=O)NCCOCCOCC(=O)NCCOCCOCC(=O)NCCCC[C@H](NC(=O)COCCOCCNC(=O)COCCOCCNC(=O)CC[C@H](NC(=O)C2CCN(C(=O)CCCCCCCCCCCCCCCCCCC(=O)O)CC2)C(=O)O)C(=O)*)C(=O)O)CC1; X1 = O=C(O)CCCCCCCCCCCCCCCCCCC(=O)N[C@@H](CCC(=O)NCCOCCOCC(=O)NCCOCCOCC(=O)NCCCC[C@H](NC(=O)COCCOCCNC(=O)COCCOCCNC(=O)CC[C@H](NC(=O)CCCCCCCCCCCCCCCCCCC(=O)O)C(=O)O)C(=O)*)C(=O)O; Aib = CC(C)(N)C(=O)O

One series is described as follows: in vivo. As to conditions: male, Göttingen, minipig, iv.
Series [1] in a line: Pharmacokinetic study in minipigs (i.v.).
Protocol: (§1) This is done in a pharmacokinetic (PK) study, where the terminal half-life of the derivative in question is determined. By terminal half-life is meant the time it takes to halve a certain plasma concentration in the terminal elimination phase.
(§2) Male Göttingen minipigs were obtained from Ellegaard Göttingen Minipigs (Dalmose, Denmark) approximately 7-14 months of age and weighing approximately 16-35 kg were used in the studies. The minipigs were housed either individually (pigs with permanent catheters) or in a group and fed restrictedly once or twice daily with SDS minipig diet (Special Diets Services, Essex, UK).
(§3) After at least 2 weeks of acclimatisation two permanent central venous catheters were implanted in vena cava caudalis or cranialis in each animal. The animals were allowed 1 week recovery after the surgery, and were then used for repeated pharmacokinetic studies with a suitable wash-out period between successive GLP-1 derivative dosings.
(§4) Blood samples (for example 0.8 ml) were collected in EDTA buffer (8 mM) and then centrifuged at 4° C. and 1942 G for 10 minutes.
(§5) Plasma was pipetted into Micronic tubes on dry ice, and kept at −20° C. until analysed for plasma concentration of the respective GLP-1 compound using LOCI. Individual plasma concentration-time profiles were analyzed by a non-compartmental pharmacokinetic method in Phoenix v. 6.2 (Pharsight Inc., Mountain View, Calif., USA), or other relevant software for PK analysis, and the resulting terminal half-lives (harmonic mean) determined.

Broadly, the half-life is how long it takes for the measured level to halve. The low end stands for fast loss, the high end for slow loss.

Protocol for in vivo: as §1, §2, §3, §4, §5

In the series “in vivo”, `CC[C@H](C)[C@H](NC(=O)[C@H](Cc1ccccc1)NC(=O)[C@H](CCC(=O)O)NC(=O)[C@H](CCCNC(=N)N)NC(=O)[C@H](C)NC(=O)[C@H](C)NC(=O)[C@H](CCC(N)=O)NC(=O)[C@H](CCC(=O)O)NC(=O)[C@H](CCC(=O)O)NC(=O)[C@H](CC(C)C)NC(=O)[C@H](Cc1ccc(O)cc1)NC(=O)[C@H](CO)NC(=O)[C@H](CO)NC(=O)[C@@H](NC(=O)[C@H](CC(=O)O)NC(=O)[C@H](CO)NC(=O)[C@@H](NC(=O)[C@H](Cc1ccccc1)NC(=O)[C@@H](NC(=O)CNC(=O)[C@H](CCC(=O)O)NC(=O)C(C)(C)NC(=O)[C@@H](N)Cc1c[nH]cn1)[C@@H](C)O)[C@@H](C)O)C(C)C)C(=O)N[C@@H](C)C(=O)N[C@@H](Cc1c[nH]c2ccccc12)C(=O)N[C@@H](CC(C)C)C(=O)N[C@H](C(=O)N[C@@H](CCCNC(=N)N)C(=O)NCC(=O)N[C@@H](CCCNC(=N)N)C(=O)NCC(=O)N[C@@H](CCCCNC(=O)[C@H](CCCCNC(=O)COCCOCCNC(=O)COCCOCCNC(=O)CC[C@H](NC(=O)CCCCCCCCCCCCCCCCCCC(=O)O)C(=O)O)NC(=O)COCCOCCNC(=O)COCCOCCNC(=O)CC[C@H](NC(=O)CCCCCCCCCCCCCCCCCCC(=O)O)C(=O)O)C(=O)O)C(C)C` [Example 9, N{Alpha}([Aib8,Glu22,Arg26,Arg34]-GLP-1-(7-37)-peptidyl)-N{Epsilon}[(2S)-2,6-bis[[2-[2-[2-[[2-[2-[2-[[(4S)-4-carboxy-4-(19-carboxynonadecanoylamino)butanoyl]amino]ethoxy]ethoxy]acetyl]amino]ethoxy]ethoxy]acetyl]amino]hexanoyl]Lys] (H-H[Aib]EGTFTSDVSSYLEEQAAREFIAWLVRGRGK(X1)-OH; N-terminus and C-terminus assumed) gave a half-life of 131 h.
Same read-out and setting: in the case of `CC[C@H](C)[C@H](NC(=O)[C@H](Cc1ccccc1)NC(=O)[C@H](CCC(=O)O)NC(=O)[C@H](CCCNC(=N)N)NC(=O)[C@H](C)NC(=O)[C@H](C)NC(=O)[C@H](CCC(N)=O)NC(=O)[C@H](CCC(=O)O)NC(=O)[C@H](CCC(=O)O)NC(=O)[C@H](CC(C)C)NC(=O)[C@H](Cc1ccc(O)cc1)NC(=O)[C@H](CO)NC(=O)[C@H](CO)NC(=O)[C@@H](NC(=O)[C@H](CC(=O)O)NC(=O)[C@H](CO)NC(=O)[C@@H](NC(=O)[C@H](Cc1ccccc1)NC(=O)[C@@H](NC(=O)CNC(=O)[C@H](CCC(=O)O)NC(=O)C(C)(C)NC(=O)[C@@H](N)Cc1c[nH]cn1)[C@@H](C)O)[C@@H](C)O)C(C)C)C(=O)N[C@@H](C)C(=O)N[C@@H](Cc1c[nH]c2ccccc12)C(=O)N[C@@H](CC(C)C)C(=O)N[C@H](C(=O)N[C@@H](CCCNC(=N)N)C(=O)NCC(=O)N[C@@H](CCCNC(=N)N)C(=O)N[C@@H](CCCCNC(=O)[C@H](CCCCNC(=O)COCCOCCNC(=O)COCCOCCNC(=O)CC[C@H](NC(=O)CCCCCCCCCCCCCCCCCCC(=O)O)C(=O)O)NC(=O)COCCOCCNC(=O)COCCOCCNC(=O)CC[C@H](NC(=O)CCCCCCCCCCCCCCCCCCC(=O)O)C(=O)O)C(=O)O)C(C)C` [Example 6, N{Epsilon-37}-[(2S)-2,6-bis[[2-[2-[2-[[2-[2-[2-[[(4S)-4-carboxy-4-(19-carboxynonadecanoylamino)butanoyl]amino]ethoxy]ethoxy]acetyl]amino]ethoxy]ethoxy]acetyl]amino]hexanoyl]-[Aib8,Glu22,Arg26,Arg34,Lys37]-GLP-1-(7-37)-peptide] it was 128 h.
The compound `CC[C@H](C)[C@H](NC(=O)[C@H](Cc1ccccc1)NC(=O)[C@H](CCC(=O)O)NC(=O)[C@H](CCCNC(=N)N)NC(=O)[C@H](C)NC(=O)[C@H](C)NC(=O)[C@H](CCC(N)=O)NC(=O)[C@H](CCC(=O)O)NC(=O)[C@H](CCC(=O)O)NC(=O)[C@H](CC(C)C)NC(=O)[C@H](Cc1ccc(O)cc1)NC(=O)[C@H](CO)NC(=O)[C@H](CO)NC(=O)[C@@H](NC(=O)[C@H](CC(=O)O)NC(=O)[C@H](CO)NC(=O)[C@@H](NC(=O)[C@H](Cc1ccccc1)NC(=O)[C@@H](NC(=O)CNC(=O)[C@H](CCC(=O)O)NC(=O)C(C)(C)NC(=O)[C@@H](N)Cc1c[nH]cn1)[C@@H](C)O)[C@@H](C)O)C(C)C)C(=O)N[C@@H](C)C(=O)N[C@@H](Cc1c[nH]c2ccccc12)C(=O)N[C@@H](CC(C)C)C(=O)N[C@H](C(=O)N[C@@H](CCCNC(=N)N)C(=O)NCC(=O)N[C@@H](CCCNC(=N)N)C(=O)NCC(=O)N[C@@H](CCCCNC(=O)[C@H](CCCCNC(=O)COCCOCCNC(=O)COCCOCCNC(=O)CC[C@H](NC(=O)C1CCN(C(=O)CCCCCCCCCCCCCCCCCCC(=O)O)CC1)C(=O)O)NC(=O)COCCOCCNC(=O)COCCOCCNC(=O)CC[C@H](NC(=O)C1CCN(C(=O)CCCCCCCCCCCCCCCCCCC(=O)O)CC1)C(=O)O)C(=O)O)C(C)C` [Example 18, N{Alpha}([Aib8,Glu22,Arg26,Arg34]-GLP-1-(7-37)-peptidyl)-N{Epsilon}[(2S)-2,6-bis[[2-[2-[2-[[2-[2-[2-[[(4S)-4-carboxy-4-[[1-(19-carboxynonadecanoyl)piperidine-4-carbonyl]amino]butanoyl]amino]ethoxy]ethoxy]acetyl]amino]ethoxy]ethoxy]acetyl]amino]hexanoyl]Lys] (H-H[Aib]EGTFTSDVSSYLEEQAAREFIAWLVRGRGK(X2)-OH) had a half-life in series [1] (male, Göttingen, minipig, plasma, iv, 15 nmol/kg) of 140 h.
With `CC[C@H](C)[C@H](NC(=O)[C@H](Cc1ccccc1)NC(=O)[C@H](CCC(=O)O)NC(=O)[C@H](CCCNC(=N)N)NC(=O)[C@H](C)NC(=O)[C@H](C)NC(=O)[C@H](CCC(N)=O)NC(=O)[C@H](CCC(=O)O)NC(=O)[C@H](CCC(=O)O)NC(=O)[C@H](CC(C)C)NC(=O)[C@H](Cc1ccc(O)cc1)NC(=O)[C@H](CO)NC(=O)[C@H](CO)NC(=O)[C@@H](NC(=O)[C@H](CC(=O)O)NC(=O)[C@H](CO)NC(=O)[C@@H](NC(=O)[C@H](Cc1ccccc1)NC(=O)[C@@H](NC(=O)CNC(=O)[C@H](CCC(=O)O)NC(=O)C(C)(C)NC(=O)[C@@H](N)Cc1c[nH]cn1)[C@@H](C)O)[C@@H](C)O)C(C)C)C(=O)N[C@@H](C)C(=O)N[C@@H](Cc1c[nH]c2ccccc12)C(=O)N[C@@H](CC(C)C)C(=O)N[C@H](C(=O)N[C@@H](CCCNC(=N)N)C(=O)NCC(=O)N[C@@H](CCCNC(=N)N)C(=O)NCC(=O)NCC(=O)N[C@@H](CO)C(=O)N[C@@H](CCCCNC(=O)[C@H](CCCCNC(=O)COCCOCCNC(=O)COCCOCCNC(=O)CC[C@H](NC(=O)C1CCC(CNC(=O)CCCCCCCCCCCCCCCCCCC(=O)O)CC1)C(=O)O)NC(=O)COCCOCCNC(=O)COCCOCCNC(=O)CC[C@H](NC(=O)C1CCC(CNC(=O)CCCCCCCCCCCCCCCCCCC(=O)O)CC1)C(=O)O)C(=O)O)C(C)C` (stereo partly drawn) [Example 3, [Aib8,Glu22,Arg26,Arg34]-GLP-1-(7-37)-peptidyl-Gly-Ser-N{Epsilon}[(2S)-2,6-bis[[2-[2-[2-[[2-[2-[2-[[(4S)-4-carboxy-4-[[4-[(19-carboxynonadecanoylamino)methyl]cyclohexanecarbonyl]amino]butanoyl]amino]ethoxy]ethoxy]acetyl]amino]ethoxy]ethoxy]acetyl]amino]hexanoyl]Lys] (H-H[Aib]EGTFTSDVSSYLEEQAAREFIAWLVRGRGGSK(X3)-OH), the “Terminal half-live” value in series [1] (minipigs, i.v., 2 nmol/kg, harmonic mean) came out at 122 h.
